Values after ≈ are worked out from the molar mass of the structure shown. Counter-ions that a name gives are not always drawn.
Columns and labels:
Assay type in all cases: cell-based
Streptococcus D = experiment: Minimum inhibition concentration (MIC), Table 4; settings: Germ: Streptococcus D; for MIC: Streptococcus, read-out: Minimum inhibition concentration (MIC)
Source text: (§1) Minimum inhibition concentration (MIC) in γ/ml

Streptococcus pyogenes A = experiment: Minimum inhibition concentration (MIC), Table 3; settings: Germ: Streptococcus pyogenes A; for MIC: read-out: Minimum inhibition concentration MIC
Source text: Minimum inhibition concentration MIC in γ/ml
Germ: Streptococcus pyogenes A

[1] = test system: Staphylococcus aureus 285; experiment: Minimum inhibition concentration (MIC), Table 1; settings: for MIC: Staphylococcus aureus, 285, Germ: Staphylococcus aureus 285, read-out: Minimum inhibition concentration (MIC)
Source text: as §1
Germ: Staphylococcus aureus 285

[2] = test system: Staphylococcus aureus SG 511; experiment: Minimum inhibition concentration (MIC), Table 5; settings: for MIC: Staphylococcus aureus, SG511, Germ: Staphylococcus aureus SG 511, read-out: Minimum inhibition concentration (MIC)
Source text: as §1
Germ: Staphylococcus aureus SG 511

Row | Compound | MIC (Streptococcus D) [µg/mL] | MIC (Streptococcus pyogenes A) [µg/mL] | MIC [1] [µg/mL] | MIC [2] [µg/mL] | Minimum inhibition concentration (MIC) (Streptococcus D) [µg/mL] | Minimum inhibition concentration (MIC) (Streptococcus pyogenes A) [µg/mL] | Minimum inhibition concentration (MIC) ([1]; Germ: Staphylococcus aureus 285) [µg/mL] | Minimum inhibition concentration (MIC) ([2]; Germ: Staphylococcus aureus SG 511, hydrochloride) [µg/mL]
1 | N=C(N)c1ccc(CC(=O)NC2C(=O)N3C(C(=O)O)=C(CSc4nnco4)CSC23)cc1 (stereo not drawn) [Example 61, 3-[(1,3,4-oxadiazole-2-yl)-thiomethyl]-7-(4-amidino-phenylacetamido)-Δ 3-cephem-4-carboxylic acid] | 10 to 50 (≈ 21.1 to 105 µM) | 0.008 to 0.0156 (≈ 0.0169 to 0.0329 µM) | 0.5 to 1.25 (≈ 1.05 to 2.63 µM) | – | – | – | – | –
2 | CCCc1nnc(SCC2=C(C(=O)O)N3C(=O)C(NC(=O)Cc4ccc(C5=NCCCN5)cc4)C3SC2)s1 (stereo not drawn) [Example 79, 3-[(5-n-propyl-1,3,4-thiadiazole-2-yl)-thiomethyl]-7-[4-(1,4,5,6-tetrahydropyrimide-2-yl)-phenylacetamido]-Δ 3-cephem-4-carboxylic acid] | 10 to 50 (≈ 17.5 to 87.3 µM) | 0.008 to 0.0156 (≈ 0.014 to 0.0272 µM) | 0.5 to 1.25 (≈ 0.873 to 2.18 µM) | – | – | – | – | –
3 | N=C(N)c1ccc(OCC(=O)NC2C(=O)N3C(C(=O)O)=C(CSc4nnc(N)s4)CSC23)cc1 (stereo not drawn) [Example 49, 3-[(5-amino-1,3,4-thiadiazole-2-yl)-thiomethyl]-7-(4-amidinophenoxyacetamido)-Δ 3-cephem-4-carboxylic acid] | 10 to 50 (≈ 19.2 to 95.9 µM) | – | 0.5 to 1.25 (≈ 0.959 to 2.4 µM) | 0.0625 to 0.078 (≈ 0.12 to 0.15 µM) | – | – | – | –
4 | 3-[(5-methyl-1,3,4-thiadiazole-2-yl)-thiomethyl]-7-[4-(imidazoline-2-yl)-2-methoxyphenoxy-acetamido]-Δ3-cephem-4-carboxylic acid [Example 126] | – | – | – | – | 10 to 50 | 0.008 to 0.0156 | 0.5 to 1.25 | –
5 | COc1cc(C(=N)N)ccc1OCC(=O)NC1C(=O)N2C(C(=O)O)=C(CSc3nnc(C)s3)CSC12 (stereo not drawn) [Example 128, 3-[(5-methyl-1,3,4-thiadizole-2-yl)-thiomethyl]-7(4-amidino-2-methoxy-phenoxy-acetamido)-Δ3-cephem-4-carboxylic acid] | – | 0.008 to 0.0156 (≈ 0.0145 to 0.0283 µM) | 0.156 to 0.391 (≈ 0.283 to 0.71 µM) | 0.0625 to 0.078 (≈ 0.114 to 0.142 µM) | – | – | – | –
6 | CCCc1nnc(SCC2=C(C(=O)O)N3C(=O)C(NC(=O)COc4ccc(C5=NCCN5)cc4)C3SC2)s1 (stereo not drawn) [Example 37, 3-[(5-n-propyl-1,3,4-thiadiazole-2-yl)-thiomethyl]-7-[4-(imidazoline-2-yl)-phenoxyacetamido]-Δ 3-cephem-4-carboxylic acid] | 0.196 to 6.25 (≈ 0.341 to 10.9 µM) | 0.000391 to 0.0078 (≈ 0.00068 to 0.0136 µM) | 0.5 to 1.25 (≈ 0.87 to 2.18 µM) | – | – | – | – | –
7 | Cc1ccnc(SCC2=C(C(=O)O)N3C(=O)C(NC(=O)Cc4ccc(C5=NCCCN5)cc4)C3SC2)n1 (stereo not drawn) [Example 102, 3-[(4-methyl-pyrimide-2-yl)-thiomethyl]-7-[4-(1,4,5,6-tetrahydropyrimide-2-yl)-phenylacetamido]-Δ3-cephem-4-carboxylic acid] | 10 to 50 (≈ 18.6 to 92.8 µM) | 0.008 to 0.0156 (≈ 0.0149 to 0.029 µM) | 1.6 to 2.5 (≈ 2.97 to 4.64 µM) | – | – | – | – | –
8 | Cc1csc(SCC2=C(C(=O)O)N3C(=O)C(NC(=O)Cc4ccc(C(=N)N)cc4)C3SC2)n1 (stereo not drawn) [Example 5, 3-[(4-methyl-thioazole-2-yl)-thiomethyl]-7-(4-amidinophenyl-acetamido)-Δ3-cephem-4-carboxylic acid] | 10 to 50 (≈ 19.9 to 99.3 µM) | – | 0.156 to 0.391 (≈ 0.31 to 0.776 µM) | 0.0625 to 0.078 (≈ 0.124 to 0.155 µM) | – | – | – | –
9 | N=C(N)c1ccc(CC(=O)NC2C(=O)N3C(C(=O)O)=C(CSc4ccc5ccccc5n4)CSC23)cc1 (stereo not drawn) [Example 91, 3-quinoline[-2-yl-thiomethyl]-7-[4-amidino-phenyl-acetamido]-Δ 3-cephem-4-carboxylic acid] | – | 0.000391 to 0.0078 (≈ 0.000733 to 0.0146 µM) | 0.156 to 0.391 (≈ 0.292 to 0.733 µM) | 0.0625 to 0.078 (≈ 0.117 to 0.146 µM) | – | – | – | –
10 | CCCc1nnc(SCC2=C(C(=O)O)N3C(=O)C(NC(=O)COc4ccc(C5=NCCN5)cc4)C3SC2)o1 (stereo not drawn) [Example 41, 3-[(5-n-propyl-1,3,4-oxadiazole-2-yl)-thiomethyl]-7-[4-(imidazoline-2-yl)-phenoxyacetamido]-Δ 3-cephem-4-carboxylic acid] | 10 to 50 (≈ 17.9 to 89.5 µM) | 0.000391 to 0.0078 (≈ 0.0007 to 0.014 µM) | 0.5 to 1.25 (≈ 0.895 to 2.24 µM) | – | – | – | – | –
11 | Cc1nnc(SCC2=C(C(=O)O)N3C(=O)C(NC(=O)COc4ccc(C(=N)N)cc4)C3SC2)s1 (stereo not drawn) [Example 35, 3-[(5-methyl-1,3,4-thiadiazole-2-yl)-thiomethyl]-7-[4-amidinophenoxy-acetamido]-Δ 3-cephem-4-carboxylic acid hydrochloride] | 10 to 50 | 0.000391 to 0.0078 | – | – | – | – | – | 0.0625 to 0.078
12 | Cc1nnc(SCC2=C(C(=O)O)N3C(=O)C(NC(=O)COc4ccc(C5=NCCN5)cc4)C3SC2)s1 (stereo not drawn) [Example 75, 3-[(5-methyl-1,3,4-thiadiazole-2-yl)-thiomethyl]-7-[4-(imidazoline-2-yl)-phenoxyacetamido]-Δ 3-cephem-4-carboxylic acid] | 10 to 50 (≈ 18.3 to 91.5 µM) | 0.000391 to 0.0078 (≈ 0.000715 to 0.0143 µM) | 0.5 to 1.25 (≈ 0.915 to 2.29 µM) | – | – | – | – | –
13 | N=C(N)c1ccc(OCC(=O)NC2C(=O)N3C(C(=O)O)=C(CSC4=NCCS4)CSC23)cc1 (stereo not drawn) [Example 30, 3-[(Δ2-thiazolidine-2-yl)-thiomethyl]-7-(4-amidinophenoxyacetamido)-Δ3-cephem-4-carboxylic acid] | 10 to 50 (≈ 19.7 to 98.5 µM) | 0.000391 to 0.0078 (≈ 0.00077 to 0.0154 µM) | 0.5 to 1.25 (≈ 0.985 to 2.46 µM) | – | – | – | – | –
14 | CCc1csc(SCC2=C(C(=O)O)N3C(=O)C(NC(=O)Cc4ccc(C5=NCCN5)cc4)C3SC2)n1 (stereo not drawn) [Example 115, 3-[(4-ethyl-thiazole-2-yl)-thiomethyl]-7-[4-(imidazoline-2-yl)-phenylacetamido]-Δ3-cephem-4-carboxylic acid] | 10 to 50 (≈ 18.4 to 92 µM) | 0.000391 to 0.0078 (≈ 0.000719 to 0.0143 µM) | 1.6 to 2.5 (≈ 2.94 to 4.6 µM) | – | – | – | – | –
